Source: patent publication US8163771B2, “11 β-HSD1 modulators” (Exelixis, Inc., priority 2008, dated 2012)

Target: T1, recombinant human 11 β-HSD1 (Homo sapiens, UniProt P28845)
T1 construct: made in house; host or cells: E. coli
Assay: 11 β-HSD1 SPA Assay (Scintillation Proximity Assay)
Type: biochemical
Protocol: (§1) Inhibition of 11 βHSD1 by test compounds was assessed in vitro by a Scintillation Proximity Assay (SPA). The assay was carried out in a 384-well assay plate in a total well volume of 26 μl and contained a mixture of tritiated cortisone substrate (40 nM), NADPH cofactor (1 mM), inhibitor in serial dilutions ([…] to 10 μM), and purified E. coli-expressed recombinant human 11 βHSD1 (30-100 nM) in assay buffer (50 mM HEPES, 100 mM KCl, 5 mM NaCl, and 2 mM MgCl2, pH7.4). Following mixing, the plate was incubated for 2 hours at room temperature. Reactions were stopped by addition of 30 μl of protein A YSi SPA beads (10 mg/ml) that had been pre-incubated with glycyrrhetinic acid (1 mM) and a monoclonal cortisol antibody (3 μg/ml). The plate was then incubated overnight at room temperature prior to reading on a Microbeta counter. Percent inhibition of each compound was calculated based on the background and the maximal signals. Wells that contained substrate without compound or enzyme were used as the background signal, while the wells that contained substrate and enzyme without any compound were used as the maximal signal. The calculation of the IC50 values for the inhibitors was performed by Activity Base.
as §1, with “β-HSD1” for “βHSD1”

T1 sequence (P28845 whole entry): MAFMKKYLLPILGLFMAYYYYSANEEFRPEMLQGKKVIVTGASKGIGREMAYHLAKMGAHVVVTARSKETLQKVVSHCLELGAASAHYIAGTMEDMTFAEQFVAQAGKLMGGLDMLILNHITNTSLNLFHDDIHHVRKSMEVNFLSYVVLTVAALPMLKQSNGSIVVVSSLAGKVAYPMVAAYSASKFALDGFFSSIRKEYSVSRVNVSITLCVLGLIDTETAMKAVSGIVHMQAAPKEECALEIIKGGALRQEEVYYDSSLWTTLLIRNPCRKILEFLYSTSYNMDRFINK

Row | Compound | IC50
1 | 2-[(2,4-dichlorophenyl)oxy]-N-{8-[5-(1-hydroxy-1-methylethyl)pyridin-2-yl]-8-azabicyclo[3.2.1]oct-3-endo-yl}-2-methylpropanamide [Example 53] | < 2000 nM
2 | O=C(NC1CC1)c1ccc(N2[C@@H]3CC[C@H]2C[C@@H](NC(=O)C2(c4ccc(Cl)cc4)CC2)C3)nc1 [Example 1, 6-[3-endo-({[1-(4-chlorophenyl)cyclopropyl]carbonyl}amino)-8-azabicyclo[3.2.1]oct-8-yl]-N-cyclopropylpyridine-3-carboxamide] | < 200 nM
3 | O=C(N[C@H]1C[C@H]2CC[C@@H](C1)N2c1ncccc1C(F)(F)F)C1(c2ccc(Cl)cc2)CC1 [Example 5] | < 2000 nM
4 | O=C(NC1CC1)c1ccc(N2C3CCC2CC(NC(=O)C2(c4ccc(Cl)cc4)CCCC2)C3)nc1 (centres unmarked) [Example 7, 6-[3-({[1-(4-chlorophenyl)cyclopentyl]carbonyl}amino)-8-azabicyclo[3.2.1]oct-8-yl]-N-cyclopropylpyridine-3-carboxamide] | < 200 nM
5 | CC(C)NC(=O)c1ccc(N2[C@@H]3CC[C@H]2C[C@@H](NC(=O)C2(c4ccc(Cl)cc4)CC2)C3)nc1 [Example 12, 6-[3-endo-({[1-(4-chlorophenyl)cyclopropyl]carbonyl}amino)-8-azabicyclo[3.2.1]oct-8-yl]-N-(1-methylethyl)pyridine-3-carboxamide] | < 200 nM
6 | CC(C)(Oc1ccc(Cl)cc1)C(=O)N[C@H]1C[C@H]2CC[C@@H](C1)N2c1ccc(C(=O)NC2CC2)cn1 [Example 13, 6-[3-endo-({2-[(4-chlorophenyl)oxy]-2-methylpropanoyl}amino)-8-azabicyclo[3.2.1]oct-8-yl]-N-cyclopropylpyridine-3-carboxamide] | < 200 nM
7 | CC(C)(Oc1cccc(Cl)c1)C(=O)N[C@H]1C[C@H]2CC[C@@H](C1)N2c1ccc(C(=O)NC2CC2)cn1 [Example 14, 6-[3-endo-({2-[(3-chlorophenyl)oxy]-2-methylpropanoyl}amino)-8-azabicyclo[3.2.1]oct-8-yl]-N-cyclopropylpyridine-3-carboxamide] | < 200 nM
8 | CC(C)(Oc1ccccc1)C(=O)N[C@H]1C[C@H]2CC[C@@H](C1)N2c1ccc(C(=O)NC2CC2)cn1 [Example 15, N-cyclopropyl-6-(3-endo-{[2-methyl-2-(phenyloxy)propanoyl]amino}-8-azabicyclo[3.2.1]oct-8-yl)pyridine-3-carboxamide] | < 200 nM
9 | O=C(NC1CC1)c1ccc(N2[C@@H]3CC[C@H]2C[C@@H](NC(=O)C2(c4cccc(Cl)c4)CC2)C3)nc1 [Example 16, 6-[3-endo-({[1-(3-chlorophenyl)cyclopropyl]carbonyl}amino)-8-azabicyclo[3.2.1]oct-8-yl]-N-cyclopropylpyridine-3-carboxamide] | < 200 nM
10 | O=C(NC1CC1)c1ccc(N2[C@@H]3CC[C@H]2C[C@@H](NC(=O)C2(c4ccccc4Cl)CC2)C3)nc1 [Example 17, 6-[3-endo-({[1-(2-chlorophenyl)cyclopropyl]carbonyl}amino)-8-azabicyclo[3.2.1]oct-8-yl]-N-cyclopropylpyridine-3-carboxamide] | < 200 nM
11 | N#Cc1ccnc(N2[C@@H]3CC[C@H]2C[C@@H](NC(=O)C2(c4ccc(Cl)cc4)CC2)C3)c1 [Example 18, 1-(4-chlorophenyl)-N-[8-(4-cyanopyridin-2-yl)-8-azabicyclo[3.2.1]oct-3-endo-yl]cyclopropanecarboxamide] | < 2000 nM
12 | O=C(O)c1ccc(N2[C@@H]3CC[C@H]2C[C@@H](NC(=O)C2(c4ccc(Cl)cc4)CC2)C3)nc1 [Example 19, 6-[3-endo-({[1-(4-chlorophenyl)cyclopropyl]carbonyl}amino)-8-azabicyclo[3.2.1]oct-8-yl]pyridine-3-carboxylic acid] | < 2000 nM
13 | CC(C)(C(=O)N[C@H]1C[C@H]2CC[C@@H](C1)N2c1ccc(C(=O)NC2CC2)cn1)c1ccc(Cl)cc1 [Example 20, 6-(3-endo-{[2-(4-chlorophenyl)-2-methylpropanoyl]amino}-8-azabicyclo[3.2.1]oct-8-yl)-N-cyclopropyipyridine-3-carboxamide] | < 200 nM
14 | CC(C)(C(=O)N[C@H]1C[C@H]2CC[C@@H](C1)N2c1ccc(C(=O)NC2CC2)cn1)c1ccccc1 [Example 21, N-cyclopropyl-6-{3-endo-[(2-methyl-2-phenylpropanoyl)amino]-8-azabicyclo[3.2.1]oct-8-yl}pyridine-3-carboxamide] | < 200 nM
15 | O=C(NCC(F)(F)F)c1ccc(N2[C@@H]3CC[C@H]2C[C@@H](NC(=O)C2(c4ccc(Cl)cc4)CC2)C3)nc1 [Example 22, 6-[3-endo-({[1-(4-chlorophenyl)cyclopropyl]carbonyl}amino)-8-azabicyclo[3.2.1]oct-8-yl]-N-(2,2,2-trifluoroethyl)pyridine-3-carboxamide] | < 200 nM
16 | Cc1ccc(C2(C(=O)N[C@H]3C[C@H]4CC[C@@H](C3)N4c3ccc(C(=O)NC4CC4)cn3)CC2)cc1 [Example 23, N-cyclopropyl-6-[3-endo-({[1-(4-methylphenyl)cyclopropyl]carbonyl}amino)-8-azabicyclo[3.2.1]oct-8-yl]pyridine-3-carboxamide] | < 200 nM
17 | CC(C)(Oc1ccccc1Cl)C(=O)N[C@H]1C[C@H]2CC[C@@H](C1)N2c1ccc(C(=O)NC2CC2)cn1 [Example 24, 6-[3-endo-({2-[(2-chlorophenyl)oxy]-2-methylpropanoyl}amino)-8-azabicyclo[3.2.1]oct-8-yl]-N-cyclopropylpyridine-3-carboxamide] | < 200 nM
18 | CC(C)(C(=O)N[C@H]1C[C@H]2CC[C@@H](C1)N2c1ccc(C(=O)NC2CC2)cn1)c1cccc(Cl)c1 [Example 25, 6-(3-endo-{[2-(3-chlorophenyl)-2-methylpropanoyl]amino}-8-azabicyclo[3.2.1]oct-8-yl)-N-cyclopropylpyridine-3-carboxamide] | < 200 nM
19 | CC(C)(C(=O)N[C@H]1C[C@H]2CC[C@@H](C1)N2c1ccc(C(=O)NCC(F)(F)F)cn1)c1ccc(Cl)cc1 [Example 26, 6-(3-endo-{[2-(4-chlorophenyl)-2-methylpropanoyl]amino}-8-azabicyclo[3.2.1]oct-8-yl)-N-(2,2,2-trifluoroethyl)pyridine-3-carboxamide] | < 200 nM
20 | CC(C)(Oc1ccc(Cl)cc1)C(=O)N[C@H]1C[C@H]2CC[C@@H](C1)N2c1ccc(C(=O)NCC(F)(F)F)cn1 [Example 27, 6-[3-endo-({2-[(4-chlorophenyl)oxy]-2-methylpropanoyl}amino)-8-azabicyclo[3.2.1]oct-8-yl]-N-(2,2,2-trifluoroethyl)pyridine-3-carboxamide] | < 200 nM
21 | O=C(NC1CC1)c1ccc(N2[C@@H]3CC[C@H]2C[C@@H](NC(=O)C2(c4ccc(F)c(F)c4)CC2)C3)nc1 [Example 28, N-cyclopropyl-6-[3-endo-({[1-(3,4-difluorophenyl)cyclopropyl]carbonyl}amino)-8-azabicyclo[3.2.1]oct-8-yl]pyridine-3-carboxamide] | < 200 nM
22 | CC(C)(Oc1ccccc1Cl)C(=O)N[C@H]1C[C@H]2CC[C@@H](C1)N2c1ccc(C(=O)NCC(F)(F)F)cn1 [Example 29, 6-[3-endo-({2-[(2-chlorophenyl)oxy]-2-methylpropanoyl}amino)-8-azabicyclo[3.2.1]oct-8-yl]-N-(2,2,2-trifluoroethyl)pyridine-3-carboxamide] | < 200 nM
23 | CC(C)NC(=O)c1ccc(N2[C@@H]3CC[C@H]2C[C@@H](NC(=O)C(C)(C)Oc2ccc(Cl)cc2)C3)nc1 [Example 30, 6-[3-endo-({2-[(4-chlorophenyl)oxy]-2-methylpropanoyl}amino)-8-azabicyclo[3.2.1]oct-8-yl]-N-(1-methylethyl)pyridine 3-carboxamide] | < 200 nM
24 | CC(C)(Oc1ccc(Cl)cc1Cl)C(=O)N[C@H]1C[C@H]2CC[C@@H](C1)N2c1ccc(C(=O)NC2CC2)cn1 [Example 31, N-cyclopropyl-6-[3-endo-({2-[(2,4-dichlorophenyl)oxy]-2-methylpropanoyl}amino)-8-azabicyclo[3.2.1]oct-8-yl]pyridine-3-carboxamide] | < 200 nM
25 | CC(C)(Oc1ccc(Cl)cc1)C(=O)N[C@H]1C[C@H]2CC[C@@H](C1)N2c1ccc(C#N)cn1 [Example 32, 2-[(4-chlorophenyl)oxy]-N-[8-(5-cyanopyridin-2-yl)-8-azabicyclo[3.2.1]oct-3-endo-yl]-2-methylpropanamide] | < 200 nM
26 | CC(C)(Oc1ccc(F)c(F)c1)C(=O)N[C@H]1C[C@H]2CC[C@@H](C1)N2c1ccc(C(=O)NC2CC2)cn1 [Example 33, N-cyclopropyl-6-[3-endo-({2-[(3,4-difluorophenyl)oxy]-2-methylpropanoyl}amino)-8-azabicyclo[3.2.1]oct-8-yl]pyridine-3-carboxamide] | < 200 nM
